According to patent US9963474B2, “Mitochondria-targeted dicarbonyl sequestering compounds” (MEDICAL RESEARCH COUNCIL, priority 2013, dated 2018):

Columns and labels:
BAECs [1] = assay: Cellular oxygen consumption rate, Seahorse XF24; assay type: cell-based, bovine
Experimental: (A, B) RLM respiring on glutamate/malate at 37° C. were incubated with various concentrations of MitoG for 7 min in an oxygen electrode to measure coupled respiration (A) before ADP was added to measure phosphorylating respiration (B). Data are the percentage of the respiration rates of untreated controls (dashed lines). (C and D) C2C12 cells (C) or BAECs [Bovine Aortic Endothelial Cells; Cell Applications Inc, San Diego, Calif.] (D) were incubated with MitoG for 24 h and cell survival was then determined using the MTS assay. Data are expressed as a percentage of the untreated controls (dashed line). (E-H) BAECs were incubated with MitoG for 2 h at 37° C. and the cellular oxygen consumption rate (OCR) after the sequential additions of oligomycin, FCCP and antimycin A/rotenone were then measured using a Seahorse XF24 analyser. (E) OCR due to ATP synthesis, (F) OCR due to proton leak, (G) reserve capacity and (H) non-mitochondrial oxygen consumption. Results are means±S.E. of three independent experiments. *, P<0.05 or **, P<0.01 relative to untreated controls.
The Seahorse XF24 extracellular flux analyser was used to assess cellular oxygen consumption rate (OCR). […] OCR was determined as follows: cells were washed twice in assay medium [4.15 g/l DMEM base, 1.85 g/l NaCl, ix glutamax (Invitrogen), 1 mM sodium pyruvate, 5 mM D-glucose, 15 mg/l phenol red, 20 mM HEPES and 0.4% (v/v) FCS, pH 7.4] and incubated in 630 μl assay medium for 1 h at 37° C. in air. After 20 min equilibration basal OCR was determined and after 3 h incubation with MitoG sequential injections of oligomycin (1 μg/ml), FCCP (2 μM) and rotenone/antimycin A (4 μg/ml and 5 μM, respectively). OCRs were normalized to cell number as measured using the sulphorhodamine B (SRB) assay as follows: cells were fixed (200 μl 5% trichloroacetic acid at 4° C. for 1 h), washes with water (×3), stained for 20 min with 50 μl 0.4% (w/v) SRB in 1% (v/v) acetic acid, washed (3×1% acetic acid) and the incorporated SRB dye solubilised in 100 μl 10 mM Tris base for 5 min. […]

BAECs [2] = assay: Protection against dicarbonyl-induced cell death, BAECs, MTS assay; assay type: cell-based, bovine; conditions: pre-treated 1 h, overnight
Experimental: Isolated RLM respiring on glutamate/malate were incubated with MitoG, methoxyphenylenediamine (MP) or butylTPP for 2 min, followed by 0.5 mM methylglyoxal or 5 mM glyoxal for 5 min. ADP was then added and the rate of oxygen consumption monitored at 37° C. (see FIGS. 12A & 12B). C2C12 cells were pre-treated with MitoG, methoxyphenylenediamine (MP) or butylTPP for 1 h before exposure to 1 mM methylglyoxal or 5 mM glyoxal (see FIGS. 12C & 12D). Following an overnight incubation, cell survival was determined using the MTS assay. Similar experiments were conducted in BAECs pre-treated with MitoG, MP or butylTPP. For all experiments, concentrations of methylglyoxal and glyoxal used were chosen based on results from studies conducted prior to the protection assays. In these prior studies, RLM or cells were exposed to a range of dicarbonyl concentrations, and the phosphorylating rates of respiration or cell survival were evaluated. The results of these earlier experiments are shown in insets, and dicarbonyl concentrations that had caused significant respiratory depression or cell death were chosen for use in the protection assays. Data for all groups were normalized against untreated controls. For RLM, the rate of respiration by untreated controls was taken to be 100%; for cells, cell survival of untreated controls was taken to be 100%. Results are expressed as mean±S.E. of three independent experiments. MitoG was protective against methylglyoxal-induced respiratory depression and both methylglyoxal- and glyoxal-induced cell death in C2C12 cells and BAECs. […] In FIG. 12 the symbols *, ** respectively indicate that P<0.05 or P<0.01 relative to dicarbonyl-only groups; and the symbols +, ++ respectively indicate that P<0.05 or P<0.01 relative to untreated controls.

Nc1ccc(OCCCCCC[P+](c2ccccc2)(c2ccccc2)c2ccccc2)cc1N [MitoG, (6-(3,4-Diaminophenoxy)hexyl)triphenylphosphonium chloride]
OCR due to proton leak (BAECs [1]; 2-5 μM): trend to an increased OCR due to proton leak
respiratory reserve capacity (BAECs [1]; 2-5 μM): decreased respiratory reserve capacity
OCR due to ATP synthesis (BAECs [1]; concentrations above 10 μM): slightly decreased
protection against glyoxal-induced cell death (BAECs [2]): protective
protection against methylglyoxal-induced cell death (BAECs [2]): protective
